Measurements reported in paper PMC5218480 (PLoS ONE, 2017).

Tested on: MV-4-11 cells
Assay: Gene expression microarray analysis (Affymetrix PrimeView) and GSEA
Assay type: cell-based, human
Parameters: RFU PODN (11730768_x_at) / Fold change /veh PODN (11730768_x_at) / RFU LINC00158 (11744669_a_at) / Fold change /veh LINC00158 (11744669_a_at) / RFU DUSP10 (11751237_a_at) / Fold change /veh DUSP10 (11751237_a_at) / RFU ID3 (11757404_x_at) / Fold change /veh ID3 (11757404_x_at) / RFU PLEKHG5 (11737974_s_at) / Fold change /veh PLEKHG5 (11737974_s_at) / RFU LRRC4B (11730491_at) / Fold change /veh LRRC4B (11730491_at) / RFU GIMAP4 (11747438_a_at) / Fold change /veh GIMAP4 (11747438_a_at) / RFU KRT8 (11758183_x_at) / Fold change /veh KRT8 (11758183_x_at) / RFU CNN1 (11734310_a_at) / Fold change /veh CNN1 (11734310_a_at) / RFU VPS37D (11726825_at) / Fold change /veh VPS37D (11726825_at) / RFU C10orf10 (11716522_x_at) / Fold change /veh C10orf10 (11716522_x_at) / RFU KIR2DL2 /// KIR2DL4 /// KIR2DL5A /// KIR2DL5B /// KIR2DS1 /// KIR2DS2 /// KIR2DS3 /// KIR2DS4 /// KIR3DL3 /// KIR3DL3 /// KIR3DS1 (11738374_at) / Fold change /veh KIR2DL2 /// KIR2DL4 /// KIR2DL5A /// KIR2DL5B /// KIR2DS1 /// KIR2DS2 /// KIR2DS3 /// KIR2DS4 /// KIR3DL3 /// KIR3DL3 /// KIR3DS1 (11738374_at) / RFU C1QL1 (11718748_at) / Fold change /veh C1QL1 (11718748_at) / RFU TMPRSS4 (11747572_a_at) / Fold change /veh TMPRSS4 (11747572_a_at) / RFU HAMP (11756126_x_at) / Fold change /veh HAMP (11756126_x_at) / RFU RNFT2 (11725882_a_at) / Fold change /veh RNFT2 (11725882_a_at) / RFU NR4A2 (11747474_a_at) / Fold change /veh NR4A2 (11747474_a_at) / RFU ABCC12 (11746883_a_at) / Fold change /veh ABCC12 (11746883_a_at) / RFU TMEM136 (11760407_x_at) / Fold change /veh TMEM136 (11760407_x_at) / RFU CLDN22 /// WWC2 (11732394_at) / Fold change /veh CLDN22 /// WWC2 (11732394_at) / RFU HLA-DPB1 (11760878_x_at) / Fold change /veh HLA-DPB1 (11760878_x_at) / RFU SPINT1 (11716480_a_at) / Fold change /veh SPINT1 (11716480_a_at) / RFU GAP43 (11754022_s_at) / Fold change /veh GAP43 (11754022_s_at) / RFU A4GNT (11735810_at) / Fold change /veh A4GNT (11735810_at) / RFU PRB3 (11715151_x_at) / Fold change /veh PRB3 (11715151_x_at) / RFU TUBB4B (11761932_at) / Fold change /veh TUBB4B (11761932_at) / RFU CAPN14 (11732068_a_at) / Fold change /veh CAPN14 (11732068_a_at) / RFU TMCC2 (11721928_a_at) / Fold change /veh TMCC2 (11721928_a_at) / RFU IRGQ (11745062_a_at) / Fold change /veh IRGQ (11745062_a_at) / RFU FAM174B (11720279_a_at) / Fold change /veh FAM174B (11720279_a_at) / RFU TMPRSS4 (11748680_a_at) / Fold change /veh TMPRSS4 (11748680_a_at) / RFU FAM212B (11763350_a_at) / Fold change /veh FAM212B (11763350_a_at) / RFU PLEKHG5 (11743358_a_at) / Fold change /veh PLEKHG5 (11743358_a_at) / RFU ZSCAN30 (11745921_a_at) / Fold change /veh ZSCAN30 (11745921_a_at) / RFU CMKLR1 (11741424_a_at) / Fold change /veh CMKLR1 (11741424_a_at) / RFU LOC101060620 /// MAPK8IP1 (11723275_at) / Fold change /veh LOC101060620 /// MAPK8IP1 (11723275_at) / RFU SPTSSB (11747773_x_at) / Fold change /veh SPTSSB (11747773_x_at) / RFU PRSS12 (11739890_at) / Fold change /veh PRSS12 (11739890_at) / RFU BIN1 (11741810_x_at) / Fold change /veh BIN1 (11741810_x_at) / RFU WNT11 (11732464_a_at) / Fold change /veh WNT11 (11732464_a_at) / RFU C10orf10 (11716521_a_at) / Fold change /veh C10orf10 (11716521_a_at) / RFU C5orf56 (11738089_at) / Fold change /veh C5orf56 (11738089_at) / RFU CYB561 (11721691_x_at) / Fold change /veh CYB561 (11721691_x_at) / RFU ANKRD19P (11752326_a_at) / Fold change /veh ANKRD19P (11752326_a_at) / RFU OR2T12 /// OR2T33 /// OR2T8 (11738714_s_at) / Fold change /veh OR2T12 /// OR2T33 /// OR2T8 (11738714_s_at) / RFU VCAN (11748164_a_at) / Fold change /veh VCAN (11748164_a_at) / RFU JSRP1 (11732532_at) / Fold change /veh JSRP1 (11732532_at) / RFU KRTAP10-11 (11738290_x_at) / Fold change /veh KRTAP10-11 (11738290_x_at) / RFU MYO3A (11730013_a_at) / Fold change /veh MYO3A (11730013_a_at) / RFU EBF3 (11725865_a_at) / Fold change /veh EBF3 (11725865_a_at) / RFU CAMK2N1 (11719241_x_at) / Fold change /veh CAMK2N1 (11719241_x_at) / RFU C5orf56 (11738088_a_at) / Fold change /veh C5orf56 (11738088_a_at) / RFU OLFML3 (11715873_a_at) / Fold change /veh OLFML3 (11715873_a_at) / RFU LOC100653217 /// NTM (11731650_a_at) / Fold change /veh LOC100653217 /// NTM (11731650_a_at) / RFU MAPK11 (11762145_a_at) / Fold change /veh MAPK11 (11762145_a_at) / RFU FIZ1 (11724087_x_at) / Fold change /veh FIZ1 (11724087_x_at) / RFU OASL (11726364_x_at) / Fold change /veh OASL (11726364_x_at) / RFU SOX15 (11748057_x_at) / Fold change /veh SOX15 (11748057_x_at) / RFU CD79A (11719716_a_at) / Fold change /veh CD79A (11719716_a_at) / RFU HIST1H1D (11736915_at) / Fold change /veh HIST1H1D (11736915_at) / RFU CASKIN2 (11723855_a_at) / Fold change /veh CASKIN2 (11723855_a_at) / RFU LOC730098 (11760151_x_at) / Fold change /veh LOC730098 (11760151_x_at) / RFU OR4N2 (11742367_at) / Fold change /veh OR4N2 (11742367_at) / RFU PRRT2 (11749266_a_at) / Fold change /veh PRRT2 (11749266_a_at) / RFU SNX32 (11753110_a_at) / Fold change /veh SNX32 (11753110_a_at) / RFU CDHR5 (11726645_a_at) / Fold change /veh CDHR5 (11726645_a_at) / RFU RCAN1 (11760418_a_at) / Fold change /veh RCAN1 (11760418_a_at) / RFU FAM167A (11723789_a_at) / Fold change /veh FAM167A (11723789_a_at) / RFU FAM26E (11764081_at) / Fold change /veh FAM26E (11764081_at) / RFU ISYNA1 (11749810_s_at) / Fold change /veh ISYNA1 (11749810_s_at) / RFU ACY1 (11761880_at) / Fold change /veh ACY1 (11761880_at) / RFU 11764098_at / Fold change /veh 11764098_at / RFU SAMD14 (11745864_x_at) / Fold change /veh SAMD14 (11745864_x_at) / RFU NPB (11741838_a_at) / Fold change /veh NPB (11741838_a_at) / RFU TMPRSS6 (11731388_a_at) / Fold change /veh TMPRSS6 (11731388_a_at) / RFU KRTAP10-2 (11738614_at) / Fold change /veh KRTAP10-2 (11738614_at) / RFU ARHGAP8 /// PRR5-ARHGAP8 (11727945_x_at) / Fold change /veh ARHGAP8 /// PRR5-ARHGAP8 (11727945_x_at) / RFU KRTAP5-7 /// NADSYN1 (11734609_at) / Fold change /veh KRTAP5-7 /// NADSYN1 (11734609_at) / RFU RASL12 (11751679_a_at) / Fold change /veh RASL12 (11751679_a_at) / RFU CDKN2B (11736163_a_at) / Fold change /veh CDKN2B (11736163_a_at) / RFU PRF1 (11729649_at) / Fold change /veh PRF1 (11729649_at) / RFU, ZNF638 /// ZNF638-IT1 / Fold change vs veh, ZNF638 /// ZNF638-IT1 / RFU, PANK3 / Fold change vs veh, PANK3 / RFU, SH3YL1 / Fold change vs veh, SH3YL1 / RFU, ZEB2 / Fold change vs veh, ZEB2 / RFU, NRIP1 / Fold change vs veh, NRIP1 / RFU, PTTG1IP / Fold change vs veh, PTTG1IP / RFU, CAPN2 / Fold change vs veh, CAPN2 / RFU, MED14 / Fold change vs veh, MED14 / RFU, SNORA58 / Fold change vs veh, SNORA58 / RFU, C1orf63 / Fold change vs veh, C1orf63 / RFU, LRRFIP1 / Fold change vs veh, LRRFIP1 / RFU, NDUFAF7 / Fold change vs veh, NDUFAF7 / RFU, SLC12A2 / Fold change vs veh, SLC12A2 / RFU, IBTK / Fold change vs veh, IBTK / RFU, ESF1 / Fold change vs veh, ESF1 / Fold change vs veh, TMEM50B / RFU, TAOK1 / Fold change vs veh, TAOK1 / RFU, ACBD3 / Fold change vs veh, ACBD3 / RFU, TMA16 / Fold change vs veh, TMA16 / RFU, RWDD3 / Fold change vs veh, RWDD3 / RFU, BCAT1 / Fold change vs veh, BCAT1 / RFU, EDEM3 / Fold change vs veh, EDEM3 / RFU, TMEM33 / Fold change vs veh, TMEM33 / RFU, WDR75 / Fold change vs veh, WDR75 / RFU, AHCTF1 / Fold change vs veh, AHCTF1 / RFU, TFRC / Fold change vs veh, TFRC / RFU, ZDHHC17 / Fold change vs veh, ZDHHC17 / RFU, NOM1 / Fold change vs veh, NOM1 / RFU, ARL8B / Fold change vs veh, ARL8B / RFU, ZBTB11 / Fold change vs veh, ZBTB11 / RFU, TAMM41 / Fold change vs veh, TAMM41 / RFU, KIAA1704 /// LOC100996395 / Fold change vs veh, KIAA1704 /// LOC100996395 / RFU, ING1 / Fold change vs veh, ING1 / RFU, TRMT61B / Fold change vs veh, TRMT61B / RFU, FUBP3 / Fold change vs veh, FUBP3 / RFU, TP53 / Fold change vs veh, TP53 / RFU, TNKS2 / Fold change vs veh, TNKS2 / RFU, ZFP14 / Fold change vs veh, ZFP14 / RFU, ACTR2 / Fold change vs veh, ACTR2 / RFU, PPP3R1 / Fold change vs veh, PPP3R1 / RFU, PIK3R1 / Fold change vs veh, PIK3R1 / RFU, HNRNPA1 / Fold change vs veh, HNRNPA1 / RFU, RNF170 / Fold change vs veh, RNF170 / RFU, ZNF28 / Fold change vs veh, ZNF28 / RFU, RNGTT / Fold change vs veh, RNGTT / RFU, OGT / Fold change vs veh, OGT / RFU, BRD1 / Fold change vs veh, BRD1 / RFU, MARS / Fold change vs veh, MARS / RFU, ZNF655 / Fold change vs veh, ZNF655 / RFU, FAHD1 / Fold change vs veh, FAHD1 / RFU, BDP1 / Fold change vs veh, BDP1 / RFU, LRRCC1 / Fold change vs veh, LRRCC1 / RFU, ARID1A / Fold change vs veh, ARID1A / RFU, ZNF146 / Fold change vs veh, ZNF146 / RFU, ZNF330 / Fold change vs veh, ZNF330 / RFU, GPN3 / Fold change vs veh, GPN3 / RFU, C9orf123 / Fold change vs veh, C9orf123 / RFU, N4BP2L2 / Fold change vs veh, N4BP2L2 / RFU, ARFIP1 / Fold change vs veh, ARFIP1 / RFU, FAM179B / Fold change vs veh, FAM179B / RFU, BCL10 / Fold change vs veh, BCL10 / RFU, UHRF1BP1L / Fold change vs veh, UHRF1BP1L / RFU, BET1 / Fold change vs veh, BET1 / RFU, CNOT2 / Fold change vs veh, CNOT2 / RFU, ZNF268 / Fold change vs veh, ZNF268 / Fold change vs veh, ZNF507 / RFU, DGCR2 / Fold change vs veh, DGCR2 / RFU, WDSUB1 / Fold change vs veh, WDSUB1 / Fold change vs veh, HSP90B1 /// MIR3652 / RFU, ADSS / Fold change vs veh, ADSS / RFU, GK / Fold change vs veh, GK / RFU, ZNF148 / Fold change vs veh, ZNF148 / RFU, TAF9 / Fold change vs veh, TAF9 / RFU, SLC1A5 / Fold change vs veh, SLC1A5 / RFU, SLMO2 / Fold change vs veh, SLMO2 / RFU, ABCC4 / Fold change vs veh, ABCC4 / RFU, LOC101060439 /// RAP1B / Fold change vs veh, LOC101060439 /// RAP1B / RFU, RFX7 / Fold change vs veh, RFX7 / RFU, GTPBP10 / Fold change vs veh, GTPBP10 / RFU, CNEP1R1 / Fold change vs veh, CNEP1R1 / RFU, BIVM-ERCC5 /// ERCC5 / Fold change vs veh, BIVM-ERCC5 /// ERCC5 / RFU, ILF3 / Fold change vs veh, ILF3 / RFU 11762660_at / Fold change /veh 11762660_at / RFU VCAN (11757783_s_at) / Fold change /veh VCAN (11757783_s_at) / RFU DDX43 (11728927_at) / Fold change /veh DDX43 (11728927_at) / RFU KRT8 (11758188_x_at) / Fold change /veh KRT8 (11758188_x_at) / RFU NKD1 (11759106_at) / Fold change /veh NKD1 (11759106_at) / RFU SRD5A1 (11742802_a_at) / Fold change /veh SRD5A1 (11742802_a_at) / RFU TPSAB1 /// TPSB2 (11721975_s_at) / Fold change /veh TPSAB1 /// TPSB2 (11721975_s_at) / RFU GSTM3 (11746129_a_at) / Fold change /veh GSTM3 (11746129_a_at) / RFU IL23R (11737362_x_at) / Fold change /veh IL23R (11737362_x_at) / RFU TMEM51 (11727254_a_at) / Fold change /veh TMEM51 (11727254_a_at) / RFU PIWIL2 (11732686_x_at) / Fold change /veh PIWIL2 (11732686_x_at) / RFU ORM1 (11744905_x_at) / Fold change /veh ORM1 (11744905_x_at) / RFU CCDC152 (11743942_at) / Fold change /veh CCDC152 (11743942_at) / RFU ECM1 (11717891_a_at) / Fold change /veh ECM1 (11717891_a_at) / RFU IL23R (11748794_a_at) / Fold change /veh IL23R (11748794_a_at) / RFU TNFAIP8L3 (11732012_x_at) / Fold change /veh TNFAIP8L3 (11732012_x_at) / RFU MBOAT4 (11741988_at) / Fold change /veh MBOAT4 (11741988_at) / RFU 11764193_at / Fold change /veh 11764193_at / RFU TMEM53 (11763286_at) / Fold change /veh TMEM53 (11763286_at) / RFU MAGEB2 (11727129_at) / Fold change /veh MAGEB2 (11727129_at) / RFU TMEM200A (11744735_a_at) / Fold change /veh TMEM200A (11744735_a_at) / RFU CCDC152 (11751479_a_at) / Fold change /veh CCDC152 (11751479_a_at) / RFU FAM211A (11726209_a_at) / Fold change /veh FAM211A (11726209_a_at) / RFU RGS16 (11746705_a_at) / Fold change /veh RGS16 (11746705_a_at) / RFU VCAN (11755009_s_at) / Fold change /veh VCAN (11755009_s_at) / RFU RHOB (11743442_s_at) / Fold change /veh RHOB (11743442_s_at) / RFU RGS16 (11720943_a_at) / Fold change /veh RGS16 (11720943_a_at) / RFU RGS16 (11720944_at) / Fold change /veh RGS16 (11720944_at) / RFU, VPS4B / Fold change vs veh, VPS4B / RFU, CREB1 / Fold change vs veh, CREB1 / RFU, DNAJC13 / Fold change vs veh, DNAJC13 / RFU, GNAQ / Fold change vs veh, GNAQ / RFU, CDK5R1 / Fold change vs veh, CDK5R1 / RFU, ZRANB3 / Fold change vs veh, ZRANB3 / RFU, CUL4A / Fold change vs veh, CUL4A / RFU, CCNY / Fold change vs veh, CCNY / RFU, UFL1 / Fold change vs veh, UFL1 / RFU, COG3 / Fold change vs veh, COG3 / RFU, DIAPH2 / Fold change vs veh, DIAPH2 / RFU, SKA2 / Fold change vs veh, SKA2 / RFU, AFF3 / Fold change vs veh, AFF3 / RFU, LMF1 / Fold change vs veh, LMF1 / RFU, IPO11 / Fold change vs veh, IPO11 / RFU, DFFB / Fold change vs veh, DFFB / RFU, FOXP1 / Fold change vs veh, FOXP1 / RFU, CARD8 / Fold change vs veh, CARD8 / RFU, STRN3 / Fold change vs veh, STRN3 / RFU, ADK / Fold change vs veh, ADK / RFU, RASSF2 / Fold change vs veh, RASSF2 / RFU, WIPF1 / Fold change vs veh, WIPF1 / RFU, LARP1B / Fold change vs veh, LARP1B / RFU, RASA1 / Fold change vs veh, RASA1 / RFU, RB1 / Fold change vs veh, RB1 / RFU, PPFIA1 / Fold change vs veh, PPFIA1 / RFU, MAT2A / Fold change vs veh, MAT2A / RFU, CCT5 / Fold change vs veh, CCT5 / RFU, WDR92 / Fold change vs veh, WDR92 / RFU, CUX1 / Fold change vs veh, CUX1 / RFU, TTC7A / Fold change vs veh, TTC7A / RFU, TMEM135 / Fold change vs veh, TMEM135 / RFU, DEPTOR / Fold change vs veh, DEPTOR / RFU, CPM / Fold change vs veh, CPM / RFU, DNAJB6 / Fold change vs veh, DNAJB6 / RFU, CACNA2D3 / Fold change vs veh, CACNA2D3 / RFU, DTX4 / Fold change vs veh, DTX4 / RFU, TFCP2 / Fold change vs veh, TFCP2 / RFU, GMCL1 /// GMCL1P1 / Fold change vs veh, GMCL1 /// GMCL1P1 / RFU, AEBP2 / Fold change vs veh, AEBP2 / RFU, SNHG1 /// SNORD22 /// SNORD25 /// SNORD26 /// SNORD27 /// SNORD28 /// SNORD29 /// SNORD31 / Fold change vs veh, SNHG1 /// SNORD22 /// SNORD25 /// SNORD26 /// SNORD27 /// SNORD28 /// SNORD29 /// SNORD31 / Fold change (Aza/veh), C12orf56 (ProbeSet 11735607_a_at) / Fold change (ACY-1035/veh), C12orf56 (ProbeSet 11735607_a_at) / Fold change (Aza/veh), FGFR1OP (ProbeSet 11751329_s_at) / Fold change (ACY-1035/veh), FGFR1OP (ProbeSet 11751329_s_at) / Fold change (Aza/veh), VPS36 (ProbeSet 11739960_a_at) / Fold change (ACY-1035/veh), VPS36 (ProbeSet 11739960_a_at) / RFU SYPL1 (11715823_x_at) / Fold change /veh SYPL1 (11715823_x_at) / RFU IGFBP7 (11715501_s_at) / Fold change /veh IGFBP7 (11715501_s_at) / RFU REEP3 (11722064_at) / Fold change /veh REEP3 (11722064_at) / RFU IGLL1 (11728026_x_at) / Fold change /veh IGLL1 (11728026_x_at): dose or concentration left out as unconfirmed
Details: ProbeSet 11749645_x_at; LIST B

`Nc1ccc(-c2cccs2)cc1NC(=O)c1ccc2c(c1)cc(C1CC1)n2CCN1CCOCC1` [ACY-1035] was tested, and the “RFU, ZNF268” value was 141.54 RFU.
